Values of other authors as cited in US6419959B1, “Galenic composition containing opioid antagonists” (Klinge Pharma GmbH, priority 1996, dated 2002).
Where two headings read alike, the source gives them in different places.

Key:
[1] = metabolites of naloxone present in the blood
patients = settings: oral
[2] = test system: patients with opioid-induced constipation; settings: oral, maximally administered dose 12 mg
[3] = test system: patients with opioid-induced constipation; settings: oral

## CN1CC[C@]23c4c5ccc(O)c4O[C@H]2[C@@H](O)C=C[C@H]3[C@H]1C5 [morphine]
Patients given morphine
  patients in whom constipation arises during treatment: approximately 85%

## C=CCN1CC[C@]23c4c5ccc(O[C@@H]6O[C@H](C(=O)O)[C@@H](O)[C@H](O)[C@H]6O)c4O[C@H]2C(=O)CC[C@@]3(O)[C@H]1C5 [naloxone-3-glucuronide]
[1]
  effectiveness of metabolite: not effective or only weakly effective

## C=CCN1CC[C@]23c4c5ccc(O)c4O[C@H]2C(=O)CC[C@@]3(O)[C@H]1C5 [naloxone]
patients; up to 10% naloxone dose with respect to the opioid dose
  effect on constipation: No effect was determinable
patients; very high dose range 20% to 40% of the opioid dose
  effect on constipation: neutralization of constipation
[2]
  effect on the gastrointestinal motility: not determinable in any of the treated patients
Healthy probands; intravenously applied, 40 μg/kg/hr in 3 hr
  neutralisation of the constipating effect of loperamide: could neutralize the constipating effect of loperamide
Healthy probands; oral administration of 16 or 32 mg
  neutralisation of the constipating effect of loperamide: could neutralize the constipating effect of loperamide
[3]; doses of up to 16 mg, three patients
  response to the treatment (neutralisation of constipation): two of the three patients responded
[3]; increase in dose of up to 24 mg within 3 hours
  neutralisation of constipation in the other patient (non-responder): constipation could not be neutralized
[3]; plasma level determinations
  dose-dependent maximal naloxone plasma concentrations: up to 7.9 ng/ml

## C=CCN1CC[C@]23c4c5ccc(O[C@@H]6O[C@H](C(=O)O)[C@@H](O)[C@H](O)[C@H]6O)c4O[C@H]2[C@H](O)CC[C@@]3(O)[C@H]1C5 [β-naloxol-3-glucuronide]
[1]
  effectiveness of metabolite: not effective or only weakly effective

## C=CCN1CC[C@]23c4c5ccc(O)c4O[C@H]2[C@H](O)CC[C@@]3(O)[C@H]1C5 [β-naloxol]
[1]
  effectiveness of metabolite: not effective or only weakly effective
